# In patent US12606543B2, “Indole derivatives as serotonergic agents useful for the treatment of disorders related thereto” (priority 2023, dated 2026):
# Read-outs that look alike come from different tables or passages of the source.
# Key:
# [1] = target: T1, human 5-hydroxytryptamine receptor 1A (5-HT1A) (Homo sapiens, UniProt P08908); assay: Human 5-HT1A functional FLIPR assay (agonist mode); assay type: cell-based; parameters: expressed in transfected cells; host or cells: Flp-In CHO; conditions: for RFU@10 μM: normalized fluorescence reading (Fmax−Fmin) at 10 μM, curve fitting with activation (%)
# T1 sequence (P08908 1-422): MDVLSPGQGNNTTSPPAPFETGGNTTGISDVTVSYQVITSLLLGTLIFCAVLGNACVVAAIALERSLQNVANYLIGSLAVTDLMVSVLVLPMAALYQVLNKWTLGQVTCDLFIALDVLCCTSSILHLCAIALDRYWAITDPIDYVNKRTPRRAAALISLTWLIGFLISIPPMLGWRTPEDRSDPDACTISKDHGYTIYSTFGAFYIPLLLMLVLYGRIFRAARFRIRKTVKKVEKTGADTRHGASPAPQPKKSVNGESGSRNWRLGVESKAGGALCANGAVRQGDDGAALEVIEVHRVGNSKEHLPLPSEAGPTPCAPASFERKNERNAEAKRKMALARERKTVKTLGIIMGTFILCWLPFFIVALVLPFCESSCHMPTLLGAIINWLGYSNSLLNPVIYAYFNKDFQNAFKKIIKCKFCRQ
# Description: The potential excitatory effects of compounds targeting on 5-hydroxytryptamine receptor 1A (5-HT1A) under agonist mode was assessed.
# HTR1A&Gα15-CHO cells were cultured in DMEM/F12 medium containing 10% dialyzed FBS, 1× penicillin-streptomycin and 600 μg/mL Hygromycin B. The cells were passaged about three times a week, maintained between ˜30% to ˜90% confluence.
# 8. Cells were diluted to 4×10^5/mL with cell culture medium.
# 9. 30 μL/well cell suspensions were added into a 384-well cell plate (The cell density was 12,000 cells/well).
# 2. 10 μL of assay buffer (20 mM HEPES, in 1×HBSS, pH 7.4) was added to each well of the cell plate.
# 3. 2× dye solution was prepared following the manufacture's instruction of the FLIPR® Calcium 6 assay kit: • i. The dye was diluted with assay buffer. • ii. probenecid was added to the final concentration of 5 mM. • iii. Vortexed vigorously for 1-2 minutes, adjust pH to 7.4.
# 4. 10 μL of 2× dye solution was added to each well of the cell plate.
# 6. The plate was incubated at 37° C. for 2 hours followed by an additional 15-minute incubation at 25° C.
# 1. Serotonin was prepared to the concentration of 10 mM with DMSO, 3-folds serial dilutions were performed with DMSO.
# 2. Prepare the test compound to the concentration of 10 mM with DMSO, preform 3-folds serial dilutions with DMSO.
# 4. 90 nL/well of serial diluted compounds were transferred from source plate to a 384-well compound plate by using an Echo.
# 5. 30 μL/well of assay buffer was added to the compound plate.
# 2. 10 μL of 3× compounds were transferred from the compound plate to the cell plate by FLIPR.
# 3. The plate was read for 160 sec with 1 sec interval to obtain the data of agonist mode.
# 1. The normalized fluorescence reading (RFU) was calculated as shown below, wherein Fmax and Fmin stand for maximum and minimum of calcium signal during defined time window:
# 2. EC50 was calculated by fitting RFU against log of compound concentrations with Hill equation using XLfit.
# human 5-HT1A receptor = target: T2, human 5-HT1A receptor (Homo sapiens, UniProt P08908); assay: Human 5-HT1A cAMP assay; assay type: cell-based; conditions: for Emax (% of serotonin): cAMP assay, CHO-K1 cells, relative to maximum response of serotonin
# T2 construct: expressed in transfected cells; host or cells: CHO-K1
# T2 sequence (P08908 1-422): T1 sequence (P08908 1-422)
# Description: Compound potency (EC50) and efficacy (Max response) against the human 5-HT1A receptor in stably transfected CHO-K1 cells were determined in a GPCR cell-based CAMP assay.
# (§1) Cells were seeded in a total volume of 20 μL into white walled, 384-well microplates and incubated at 37° C. overnight before analysis. Prior to testing, cell plating media was exchanged with 10 μL of Assay buffer (HBSS+10 mM HEPES). Briefly, intermediate dilution of sample stocks were performed to generate 4× sample in assay buffer. 5 μL of 4× samples+5 μL of 4× forskolin were added to cells and incubated at 37° C. for 30 minutes (mins). The final assay vehicle concentration was 1%.
# as §1, with “sample stocks was performed to” for “sample stocks were performed to”, “generate 4× samples in assay” for “generate 4× sample in assay”, “4× forskolin was added to” for “4× forskolin were added to”, “for 30 mins. The final” for “for 30 minutes (mins). The final”
# [2] = cAMP assay with forskolin, stably transfected CHO-K1 cells, 30 min, read-out: EC50
SMILES,RFU@10 μM [1],EC50 [1],EC50 (human 5-HT1A receptor),Emax (% of serotonin) (human 5-HT1A receptor),EC50 (human 5-HT1A receptor; [2])
[2H]C([2H])(c1c[nH]c2ccc(OCCCCCN3C(=O)C4CCCCC4C3=O)cc12)[C@H]1CCCN1C([2H])([2H])[2H] (mixture of isomers) [Rac (R) I-248],601 RFU,,,,
"CSc1ccc2[nH]cc(C[C@H]3CCCN3C)c2c1 [(R) I-1, (R)-3-((1-Methylpyrrolidin-2-yl)methyl)-5-(methylthio)-1H-indole]","3,355 RFU",581 nM,11.1 nM,99.41 % of serotonin,
"COCCN1CCC[C@@H]1Cc1c[nH]c2ccc(OC)cc12 [(R) I-98, (R)-5-Methoxy-3-((1-(2-methoxyethyl)pyrrolidin-2-yl)methyl)-1H-indole]","1,666 RFU",3170 nM,,96.42 % of serotonin,40.3 nM
"[2H]C([2H])(c1c[nH]c2ccc(OCCCCN3C(=O)c4ccccc4C3=O)cc12)[C@H]1CCCN1C([2H])([2H])[2H] [(R) I-244, (R)-2-(4-((3-((1-(Methyl-d3)pyrrolidin-2-yl)methyl-d2)-1H-indol-5-yl)oxy)butyl)isoindoline-1,3-dione]",616 RFU,,,99.01 % of serotonin,6.3 nM
"[2H]C([2H])(c1c[nH]c2ccc(OCCCCCN3C(=O)c4ccccc4C3=O)cc12)[C@H]1CCCN1C([2H])([2H])[2H] [(R) I-245, (R)-2-(5-((3-((1-(Methyl-d3)pyrrolidin-2-yl)methyl-d2)-1H-indol-5-yl)oxy)pentyl)isoindoline-1,3-dione]",899 RFU,,,99.14 % of serotonin,19.5 nM
"[2H]C([2H])(c1c[nH]c2ccc(OCCCCCN3C(=O)[C@H]4CCCC[C@H]4C3=O)cc12)[C@H]1CCCN1C([2H])([2H])[2H] [Cis (R) I-248, 2-(5-((3-(((R)-1-(Methyl-d3)pyrrolidin-2-yl)methyl-d2)-1H-indol-5-yl)oxy)pentyl)hexahydro-1H-isoindole-1,3(2H)-dione]",,,,96.76 % of serotonin,52.7 nM
CN(C)CCc1c[nH]c2ccccc12 [DMT],204 RFU,,,87.1 % of serotonin,
